“And” between values parts separate entries of the source, which are not always exact repeats. Equal entries are not always repeated. Where two headings read alike, the source gives them in different places. Where a SMILES comes first, the peptide text is derived from it. Bridges are numbered along the chain shown (N, C = ends). [ ]: non-standard residue; d: D form. Nle = CCCC[C@H](N)C(=O)O
Biological target: VEGF (Homo sapiens, UniProt P15692)
Conditions: for Δ(ΔH 20 °C) / Δ(‐TΔS) 20 °C / Δ(ΔH 37 °C) / Δ(‐TΔS) 37 °C / Δ(ΔCp) / Δ(ΔG 20 °C) / Δ(ΔG 37 °C): ± at P=95 %; for ΔG / −TΔS / ΔH / ΔCp: ITC, 95 % confidence interval in brackets; for ΔG / −TΔS / ΔH: 50 mM HEPES/NaOH, 150 mM NaCl, pH 7.5, first binding site; for ΔG: calculated from Kd (Eq. 1); for −TΔS: calculated from ΔG and ΔH (Eq. 2); for ΔH: normalised on reverse titrations; for ΔCp: heat capacity change on binding from ΔH at 20 °C and 37 °C (Eq. 3)
[1] = 20 °C, bicyclic peptide minus its monocyclic counterpart
[2] = 37 °C, bicyclic peptide minus its monocyclic counterpart
[3] = bicyclic peptide minus its monocyclic counterpart
[4] = 20 °C, monocyclic peptide minus peptide 4 (pairs 1–4, 3–4)
[5] = 37 °C, monocyclic peptide minus peptide 4 (pairs 1–4, 3–4)
[6] = 20 °C, peptide 2 minus peptide 1 (pair 2–1)
[7] = 20 °C, peptide 2 minus peptide 3 (pair 2–3)
[8] = 37 °C, peptide 2 minus peptide 1 (pair 2–1)
[9] = 37 °C, peptide 2 minus peptide 3 (pair 2–3)

Sequence of VEGF (P15692 219-313): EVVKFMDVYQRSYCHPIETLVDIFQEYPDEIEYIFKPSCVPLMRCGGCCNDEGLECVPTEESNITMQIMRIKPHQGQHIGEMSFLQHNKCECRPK

Δ(ΔH 20 °C) [1] [kcal⋅mol^−1]	Δ(‐TΔS) 20 °C [1] [kcal⋅mol^−1]	Δ(ΔH 37 °C) [2] [kcal⋅mol^−1]	Δ(‐TΔS) 37 °C [2] [kcal⋅mol^−1]	ΔG (20 °C)	−TΔS (20 °C)	ΔH (20 °C)	ΔG (37 °C)	−TΔS (37 °C)	ΔH (37 °C)	ΔCp	Δ(ΔCp) [3] [kcal⋅mol^−1.K^−1]	Structure (SMILES)	other results
				−9.05 [−9.15; −8.97] kcal⋅mol^−1	8.7 [8.2; 9.3] kcal⋅mol^−1		−8.51 [−8.56; −8.46] kcal⋅mol^−1	14.2 [13.8; 14.7] kcal⋅mol^−1	−22.8 [−23.1; −22.4] kcal⋅mol^−1	−0.29 [−0.32; −0.26] kcal⋅mol^−1.K^−1		CCCC[C@@H]1NC(=O)[C@H](C(C)C)NC(=O)[C@H](Cc2c[nH]cn2)NC(=O)[C@H]([C@@H](C)CC)NC(=O)[C@H](CC(=O)O)NC(=O)[C@@H](N)CSSC[C@@H](C(=O)N[C@@H](Cc2ccccc2)C(=O)N[C@@H](CCC(=O)O)C(=O)N[C@@H](CC(=O)O)C(=O)N[C@@H](CC(C)C)C(N)=O)NC(=O)[C@H](CCCCN)NC(=O)[C@H](Cc2c[nH]c3ccccc23)NC(=O)[C@H](CCC(=O)O)NC(=O)[C@H](Cc2c[nH]c3ccccc23)NC1=O [compound 1] (H-CDIHV[Nle]WEWKCFEDL-NH2; disulfide 1-11)	Δ(ΔG 20 °C) [4]: 0.2 ± 0.1 kcal⋅mol^−1 and 0.16±0.10 kcal⋅mol^−1; Δ(ΔH 20 °C) [4]: -0.4 ± 0.6 kcal⋅mol^−1; Δ(‐TΔS) 20 °C [4]: 0.6 ± 0.7 kcal⋅mol^−1; Δ(ΔG 37 °C) [5]: 0.2 ± 0.1 kcal⋅mol^−1 and 0.20±0.09 kcal⋅mol^−1; Δ(ΔH 37 °C) [5]: 0.2 ± 0.8 kcal⋅mol^−1; Δ(‐TΔS) 37 °C [5]: 0.0 ± 1.0 kcal⋅mol^−1; Δ(ΔCp) (monocyclic peptide minus peptide 4 (pairs 1–4, 3–4)): 0.04±0.06 kcal⋅mol^−1.K^−1
				−9.13 [−9.21; −9.05] kcal⋅mol^−1	6.7 [6.3; 7.1] kcal⋅mol^−1		−8.76 [−8.82; −8.70] kcal⋅mol^−1	13.3 [12.7; 13.9] kcal⋅mol^−1	−22.0 [−22.6; −21.5] kcal⋅mol^−1	−0.36 [−0.40; −0.32] kcal⋅mol^−1.K^−1		CCCC[C@@H]1NC(=O)[C@H](C(C)C)NC(=O)[C@H](Cc2c[nH]cn2)NC(=O)[C@H]([C@@H](C)CC)NC(=O)[C@H](CC(=O)O)NC(=O)[C@@H](N)CSSC[C@@H](C(=O)N[C@@H](Cc2ccccc2)C(=O)N[C@@H](CCC(=O)O)C(=O)N[C@@H](CCCCN)C(=O)N[C@@H](CC(C)C)C(N)=O)NC(=O)[C@H](CC(=O)O)NC(=O)[C@H](Cc2c[nH]c3ccccc23)NC(=O)[C@H](CCC(=O)O)NC(=O)[C@H](Cc2c[nH]c3ccccc23)NC1=O [compound 2]	Δ(ΔG 20 °C) [6]: −0.08±0.12 kcal⋅mol^−1; Δ(ΔH 20 °C) [6]: 2.0 ± 0.6 kcal⋅mol^−1; Δ(ΔG 20 °C) [7]: 0.3 ± 0.2 kcal⋅mol^−1 and 0.33±0.12 kcal⋅mol^−1; Δ(ΔH 20 °C) [7]: 1.4 ± 0.6 kcal⋅mol^−1; Δ(‐TΔS) 20 °C [7]: -1.0 kcal⋅mol^−1 and −1.0±0.8 kcal⋅mol^−1; Δ(ΔG 37 °C) [8]: −0.25±0.08 kcal⋅mol^−1; Δ(ΔH 37 °C) [8]: 0.7 ± 0.7 kcal⋅mol^−1; Δ(‐TΔS) 37 °C [8]: -1.0 ± 0.8 kcal⋅mol^−1; Δ(ΔG 37 °C) [9]: 0.3 ± 0.1 kcal⋅mol^−1 and 0.34±0.08 kcal⋅mol^−1; Δ(ΔH 37 °C) [9]: 1.0 ± 0.7 kcal⋅mol^−1; Δ(‐TΔS) 37 °C [9]: -0.6 ± 0.8 kcal⋅mol^−1; Δ(ΔCp) (peptide 2 minus peptide 1 (pair 2–1)): −0.07±0.05 kcal⋅mol^−1.K^−1; Δ(ΔCp) (peptide 2 minus peptide 3 (pair 2–3)): −0.02±0.05 kcal⋅mol^−1.K^−1
				−9.22 [−9.27; −9.16] kcal⋅mol^−1	8.2 [7.8; 8.5] kcal⋅mol^−1	−17.4 [−17.7; −17.1] kcal⋅mol^−1	−8.71 [−8.80; −8.63] kcal⋅mol^−1	14.3 [13.5; 15.1] kcal⋅mol^−1	−23.0 [−23.7; −22.3] kcal⋅mol^−1	−0.33 [−0.38; −0.28] kcal⋅mol^−1.K^−1		CCCC[C@@H]1NC(=O)[C@H](C(C)C)NC(=O)[C@H](Cc2c[nH]cn2)NC(=O)[C@H]([C@@H](C)CC)NC(=O)[C@H](CC(=O)O)NC(=O)[C@@H](N)CSSC[C@@H](C(=O)N[C@@H](Cc2ccccc2)C(=O)N[C@@H](CCC(=O)O)C(=O)N[C@@H](CCC(=O)O)C(=O)N[C@@H](CC(C)C)C(N)=O)NC(=O)[C@H](CCCCN)NC(=O)[C@H](Cc2c[nH]c3ccccc23)NC(=O)[C@H](CCC(=O)O)NC(=O)[C@H](Cc2c[nH]c3ccccc23)NC1=O [compound 4] (H-CDIHV[Nle]WEWKCFEEL-NH2; disulfide 1-11)	

The remaining lines, values behind:

Structure (SMILES)	Δ(ΔH 20 °C) [1] [kcal⋅mol^−1]	Δ(‐TΔS) 20 °C [1] [kcal⋅mol^−1]	Δ(ΔH 37 °C) [2] [kcal⋅mol^−1]	Δ(‐TΔS) 37 °C [2] [kcal⋅mol^−1]	ΔG (20 °C)	−TΔS (20 °C)	ΔH (20 °C)	ΔG (37 °C)	−TΔS (37 °C)	ΔH (37 °C)	ΔCp	Δ(ΔCp) [3] [kcal⋅mol^−1.K^−1]	other results
CCCC[C@@H]1NC(=O)[C@H](C(C)C)NC(=O)[C@H](Cc2c[nH]cn2)NC(=O)[C@H]([C@@H](C)CC)NC(=O)[C@H](CC(=O)O)NC(=O)[C@@H](N)CSSC[C@@H]2NC(=O)[C@H](CCC(=O)NCCCC[C@@H](C(=O)N[C@@H](CC(C)C)C(N)=O)NC(=O)[C@H](CCC(=O)O)NC(=O)[C@H](Cc3ccccc3)NC2=O)NC(=O)[C@H](Cc2c[nH]c3ccccc23)NC(=O)[C@H](CCC(=O)O)NC(=O)[C@H](Cc2c[nH]c3ccccc23)NC1=O [3 c]	1.2±0.7	−1.6±0.8	0.6±0.6	−1.1±0.7	−.89 [−10.01; −9.78] kcal⋅mol^−1	6.1 [5.6; 6.5] kcal⋅mol^−1	−16.0 [−16.3; −15.6] kcal⋅mol^−1	−9.61 [−9.71; −9.52] kcal⋅mol^−1	12.8 [12.3; 13.2] kcal⋅mol^−1	−22.4 [−22.8; −22.0] kcal⋅mol^−1	−0.38 [−0.41; −0.35] kcal⋅mol^−1.K^−1	−0.04±0.05	
CCCC[C@@H]1NC(=O)[C@H](C(C)C)NC(=O)[C@H](Cc2c[nH]cn2)NC(=O)[C@H]([C@@H](C)CC)NC(=O)[C@H](CC(=O)O)NC(=O)[C@@H](N)CSSC[C@@H]2NC(=O)[C@H](CCCCNC(=O)CC[C@@H](C(=O)N[C@@H](CC(C)C)C(N)=O)NC(=O)[C@H](CCC(=O)O)NC(=O)[C@H](Cc3ccccc3)NC2=O)NC(=O)[C@H](Cc2c[nH]c3ccccc23)NC(=O)[C@H](CCC(=O)O)NC(=O)[C@H](Cc2c[nH]c3ccccc23)NC1=O [4 c] (H-CDIHV[Nle]WEWKCFEEL-NH2; disulfide 1-11; lactam 10-14)	1.4±0.7	−1.3±0.9	0.8±1.2	−0.8±1.3	−9.16 [−9.27; −9.05] kcal⋅mol^−1	6.8 [6.1; 7.6] kcal⋅mol^−1	−16.0 [−16.6; −15.4] kcal⋅mol^−1	−8.68 [−8.79; −8.56] kcal⋅mol^−1	13.5 [12.5; 14.7] kcal⋅mol^−1	−22.2 [−23.2; −21.3] kcal⋅mol^−1	−0.37 [−0.43; −0.31] kcal⋅mol^−1.K^−1	−0.04±0.08	Δ(ΔG 20 °C) (20 °C, bicyclic peptide minus its monocyclic counterpart (1 c–1, 2 c–2, 3 c–3, 4 c–4)): 0.06±0.12 kcal⋅mol^−1; Δ(ΔG 37 °C) [2]: 0.04±0.14 kcal⋅mol^−1

Reference: publication PMC9543606, “Structural and ITC Characterization of Peptide‐Protein Binding: Thermodynamic Consequences of Cyclization Constraints, a Case Study on Vascular Endothelial Growth Factor Ligands” (Chemistry (Weinheim an Der Bergstrasse, Germany), 2022)
